The text below walks through data of patent US20100298402A1, “STILBENE DERIVATIVES AS PSTAT3/IL-6 INHIBITORS” (ORCHID RESEARCH LABORATORIES LIMITED, priority 2007, published 2010).

Type in all cases: cell-based
For assay [1], the system named is HCT 116 (colon), NCIH460 (lung) and U251 (glioma) cell lines. Briefly: Anti-cancer screen (MTT growth inhibition, 48 hours).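 Note: mean GI50 across the three cell lines.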 The following applies: Homo sapiens; HCT 116, NCIH460 and U251 cell lines; MTT after 48 hours of incubation.
Assay [2] deals with pSTAT3 in HEPG2 (liver cancer) cells induced by IL-6. Description: Inhibition of pSTAT3 (IL-6 induced phosphorylation of STAT3, Phospho-STAT3 (Tyr705) Sandwich ELISA). The following applies: Homo sapiens, 4 hours compound, then IL-6 (10 ng/mL) 30 minutes. The method, then:
The experimental drugs were tested for their effect on phosphorylation of STAT3 in HEPG2 (liver cancer) cells induced by IL-6. Test compounds were dissolved in DMSO at 20 mM and diluted in a growth medium at 2× strength. Final DMSO concentration was less than 0.5%. 100 μL of cell suspension (10×10^4 cells/mL) was added to the wells of 96 well plates and allowed to adhere for 24 hours in a CO2 incubator at 37° C. Following overnight incubation, the culture medium was replaced with 100 μL of fresh growth medium and 100 μL of test compound (s), standard (Curcumin) and growth medium (untreated) wells. The plates were incubated in CO2 incubator at 37° C. for 4 hours. After compound treatment, IL-6 (10 ng/mL) was added to the wells and incubated for 30 minutes to induce pSTAT3.
At the end of the 30 minutes incubation, cells were rinsed with ice-cold PBS and lysed with 1× Cell lysis buffer containing 1 mM PMSF (provided in the kit) on ice for 5 minutes. The cells were scraped off and transferred to an appropriate tube, sonicated on ice and centrifuged for 10 minutes at 4° C. The supernatant (cell lysate) was collected and stored at −80° C. and the levels of pSTAT3 were measured in the cell lysate by Path Scan Phospho-STAT3 (Tyr705) Sandwich ELISA kit (Cell Signaling, Cat No. 7300) by following the kit instructions.
A general note: In an ELISA, binding on a coated surface is turned into a signal by an enzyme label.

Assay [3] deals with IL-6 in supernatant of NCIH 460 cells. Description: Measuring IL-6 in culture supernatants (ELISA). The following applies: Homo sapiens, NCI-H460, 5 hours incubation.

One may read the GI50 as the concentration giving 50% growth inhibition. A lower GI50 goes with greater sensitivity of the cells. The term inhibition denotes how much of the control response was suppressed.

With `COC(=O)/C(=C/c1ccc(OCC(O)CNCc2ccc(OC)cc2OC)cc1)c1ccc(C)cc1` (stereo not shown) [Example 37, 3-{4-[3-(2,4-Dimethoxybenzylamino)-2-hydroxypropoxy]phenyl}-2-(4-methylphenyl)acrylic acid methyl ester], the GI50 in assay [1] came out at 6.2 µM. The values for the inhibition at 10 µM in assay [2] and in assay [3] were 42% and 68.1%, respectively. As to `COC(=O)/C(=C/c1ccc(OCC(O)CNCc2ccc(OC)cc2OC)cc1)c1ccc(F)cc1` (stereo not shown) [Example 35, 3-{4-[3-(2,4-Dimethoxybenzylamino)-2-hydroxypropoxy]phenyl}-2-(4-fluorophenyl)acrylic acid methyl ester], growth in assay [1] was halved (GI50) at 5.1 µM. Besides, the inhibition at 10 µM in assay [2] amounted to 32.7%; in assay [3] it was 72.7%.

`COC(=O)/C(=C/c1ccc(OCC(O)CNCc2ccc(OC)cc2OC)cc1)c1ccccc1F` (stereo not shown) [Example 53, 3-{4-[3-(2,4-Dimethoxybenzylamino)-2-hydroxypropoxy]phenyl}-2-(2-fluorophenyl)acrylic acid methyl ester] gave an inhibition at 10 µM in assay [2] of 61.4%. In assay [1], `COC(=O)/C(=C/c1ccc(OCC(O)CNCc2ccc(OC)cc2OC)cc1)c1cccs1` (stereo not shown) [Example 40, 3-{4-[3-(2,4-Dimethoxybenzylamino)-2-hydroxypropoxy]phenyl}-2-(thiophen-2-yl)acrylic acid methyl ester] came in with a GI50 of 9.7 µM. The inhibition at 10 µM was found to be 71% in assay [2] and 70.5% in assay [3]. In assay [2], `COc1ccc(CNCC(O)COc2ccc(/C(=C\c3ccc(F)c(F)c3)C(N)=O)cc2)c(OC)c1` (stereo not shown) [Example 64, 2-{4-[3-(2,4-Dimethoxybenzylamino)-2-hydroxypropoxy]phenyl}-3-(3,4-difluorophenyl)acrylamide] yielded an inhibition at 10 µM of 32.2%.

With `COC(=O)/C(=C/c1ccc(C)s1)c1ccc(OCC(O)CNCc2ccc(OC)cc2OC)cc1` (stereo not shown) [Example 56, 2-{4-[3-(2,4-Dimethoxybenzylamino)-2-hydroxypropoxy]phenyl}-3-(5-methylthiophen-2-yl)acrylic acid methyl ester], in assay [2], the inhibition at 10 µM came out at 56.2%.

As to `COC(=O)/C(=C/c1ccc(OCC(O)CNCCOc2ccccc2OC)cc1)c1ccc(C)cc1` (stereo not shown) [Example 38, 3-{4-[3-(2-Methoxyphenoxyethylamino)-2-hydroxypropoxy]phenyl}-2-(4-methylphenyl)acrylic acid methyl ester], halving of growth in assay [1] (GI50) required 9 µM. The inhibition at 10 µM stood at 77.2% in assay [2] and 69.1% in assay [3]. For `COC(=O)/C(=C/c1ccccc1OCC(O)CNCc1ccccc1)c1ccc(OC)cc1` (stereo not shown) [Example 43, 3-{2-[3-(Benzylamino)-2-hydroxypropoxy]phenyl}-2-(4-methoxyphenyl)acrylic acid methyl ester], in that order: 0.86 µM, 46.4% and 9.6%.

In assay [2], `COC(=O)/C(=C/c1ccc(F)c(C)c1)c1ccc(OCC(O)CNCc2ccc(OC)cc2OC)cc1` (stereo not shown) [Example 1, 2-{4-[3-(2,4-dimethoxybenzylamino)-2-hydroxypropoxy]phenyl}-3-(4-fluoro-3-methylphenyl)acrylic acid methyl ester] came in with an inhibition at 10 µM of 22.2%.

For `COC(=O)/C(=C/c1ccc(C)s1)c1ccc(OCC(O)CNCCOc2ccccc2OC)cc1` (stereo not shown) [Example 57, 2-{4-[3-(2-Methoxyphenoxyethylamino)-2-hydroxypropoxy]phenyl}-3-(5-methylthiophen-2-yl)acrylic acid methyl ester], testing at 10 µM in assay [2] gave an inhibition of 66.5%. In the case of `COC(=O)/C(=C/c1ccc(OCC(O)CNCc2ccccc2)cc1)c1cccc(Cl)c1` (stereo not shown) [Example 49, 3-{4-[3-(Benzylamino)-2-hydroxypropoxy]phenyl}-2-(3-chlorophenyl)acrylic acid methyl ester], in assay [1], the GI50 is 2.1 µM. In addition, the inhibition at 10 µM in assay [2] is 58.4%; in assay [3], 56%. The compound `COc1ccccc1OCCNCC(O)COc1ccc(/C(=C\c2ccc(F)c(F)c2)C(N)=O)cc1` (stereo not shown) [Example 65, 2-{4-[3-(2-Methoxyphenoxyethylamino)-2-hydroxypropoxy]phenyl}-3-(3,4-difluorophenyl)acrylamide] gave an inhibition at 10 µM in assay [2] of 0%. Same read-out and setting: with `COC(=O)/C(=C/c1ccc(OCC(O)CNCCOc2ccccc2OC)cc1)c1cccc(F)c1` (stereo not shown) [Example 51, 3-{4-[3-(2-Methoxyphenoxyethylamino)-2-hydroxypropoxy]phenyl}-2-(3-fluorophenyl)acrylic acid methyl ester] the figure was 49.9%.
